Measured values: patent US20240285726A1, “Bacteriocin for new application” (Syngulon S.A., priority 2021, published 2024)
Entries after “also recorded” stand apart in the source; their conditions may differ. Ends that are not written are not given here.

Columns and labels:
[1] = test system: S. epidermidis ATCC 12228; assay: Antimicrobial activity test on inoculated M17 agar plates (inhibition halo); format: cell-based, Staphylococcus epidermidis; conditions: 2 μl of 1 mg/ml aqueous solution on inoculated M17 agar plate, overnight incubation
Experimental: (§1) Bacterial strains were grown overnight in liquid culture on rotary shakers or on agar plates using M17 media supplemented with 0.5% glucose. S. aureus ATCC 6538 and S. epidermidis ATCC 12228 liquid cultures and agar plates were grown anaerobically at 37° C. Culture volume utilized in MIC assays was 200 μl.
(§2) Antimicrobial activities of bacteriocins were tested on M17 agar plates in Examples 1 and 3. In Example 1, 2 μl of bacteriocin peptide (SEQ ID NO: 1) aqueous solutions at a concentration of 1 mg/ml were deposited on inoculated M17 agar plates of S. aureus ATCC 6538 and S. epidermidis ATCC 12228. An equivalent amount of aureocin A53 aqueous solution (1 mg/ml concentration) was used as positive control. In the case of S. epidermidis ATCC 12228, an equivalent amount of pediocin A1 aqueous solution (1 mg/ml concentration) was used as negative control.

[2] = test system: S. epidermidis ATCC 12228; assay: MIC assay in liquid cultures (endpoint OD600); format: cell-based, Staphylococcus epidermidis; conditions: liquid culture, concentrations 0.49 to 500 μg/ml
Experimental: as §1
(§3) Determination of bacteriocin (SEQ ID NO: 1) MIC values was performed in liquid cultures. Growth was assessed by measuring endpoint OD600 values in a Spectramax i3 (Molecular Devices, CA, USA). Minimum inhibitory concentration (MIC) was defined as the lowest concentration of bacteriocin which inhibited 50% of the growth of cultures as compared to reference cultures not exposed to the bacteriocin. Concentration of the bacteriocin in well 11 was 250 μg/ml in the case of S. aureus ATCC 6538 and 500 μg/ml in the case of S. epidermidis ATCC 12228, diluted 2-fold per subsequent well as shown in Table 3 (concentrations rounded to the second decimal): […]

[3] = test system: S. aureus ATCC 6538; assay: Antimicrobial activity test on inoculated M17 agar plates (inhibition halo); format: cell-based, Staphylococcus aureus; conditions: for antimicrobial activity of variants (inhibition halo): 5 μl of 1 mg/ml aqueous solution on M17 agar plates of S. aureus ATCC 6538, overnight incubation, compared with SEQ ID NO: 1
Experimental: as §1, §2
In Example 3, 5 μl of bacteriocin peptides (SEQ ID NO: 1, 3-97) aqueous solutions at a concentration of 1 mg/ml were deposited on inoculated M17 agar plates of S. aureus ATCC 6538. After overnight incubation, the presence of an inhibition halo was considered as a positive result of antimicrobial activity.

[4] = test system: S. aureus ATCC 6538; assay: MIC assay in liquid cultures (endpoint OD600); format: cell-based, Staphylococcus aureus; conditions: calculated as average concentration between wells 10 and 11
Experimental: as §1, §3

Substance | inhibition halo on agar plate [1] | antimicrobial activity of variants (inhibition halo) [3] | also measured
pediocin A1 [reference compound] | no inhibition halo was visible | – | –
MLAFLKLVAKLGPKAAKWAWANKGKVLGWIRDGLAIDWIINKINDIVN [SEQ ID NO: 1] | no inhibition halo was visible; also recorded: no inhibition halo was present | – | growth inhibition in MIC assay [2]: No growth inhibition was observed; inhibition halo on agar plate ([3]; 2 μl of 1 mg/ml aqueous solution on inoculated M17 agar plate, overnight incubation, S. aureus ATCC 6538): An inhibition halo was visible; MIC (lowest concentration inhibiting 50% of culture growth) [4]: 188 µg/mL
aureocin A53 [reference compound] | an inhibition halo was present | – | –
MLAFLKLVAKLGPKAAKWAWANKGKVLGWIRDGLAIINKINDIVN [SEQ ID NO: 62] | – | did not compromise its antimicrobial activity | –
MLFLKLVAKLGPKAAKWAWANKGKVLGWIRDGLAIDWIINKINDIVN [SEQ ID NO: 55] | – | did not compromise its antimicrobial activity | –
MAFLKLVAKLGPKAAKWAWANKGKVLGWIRDGLAIDWIINKINDIVN [SEQ ID NO: 54] | – | did not compromise its antimicrobial activity | –
